From ChEMBL document CHEMBL3611984, “Isolation and anticancer, anthelminthic, and antiviral (HIV) activity of acylphloroglucinols, and regioselective synthesis of empetrifranzinans from Hypericum roeperianum” (Bioorg Med Chem, 2015)
Active and inactive are the calls of the source. No cut-off for these calls is given here.

Assays:
[1] = Cytotoxicity against mock-infected human MT4 cells assessed as reduction in cell viability after 96 hrs by MTT assay; format: cell-based
[2] = tested on: Human immunodeficiency virus 1; experiment: Antiviral activity against HIV1 3B infected in human MT4 cells assessed as protection against virus-induced cytopathogenicity after 4 days by MTT assay; format: functional, organism-based; settings: Human immunodeficiency virus 1, 3B, MT4, 96 h
Escherichia coli = experiment: Antibacterial activity against Escherichia coli DSM 1103; format: functional
Staphylococcus aureus = experiment: Antibacterial activity against Staphylococcus aureus DSM 2569; format: functional
Enterococcus faecalis = experiment: Antibacterial activity against Enterococcus faecalis DSM 2570; format: functional
PC-3 [3] = experiment: Cytotoxicity against human PC3 cells assessed as growth inhibition at 10 uM after 3 days by XTT assay relative to control; format: functional; settings: PC-3, 72 h, read-out: GI
PC-3 [4] = experiment: Cytotoxicity against human PC3 cells assessed as growth inhibition at 10 nM after 3 days by XTT assay relative to control; format: functional; settings: PC-3, 72 h, read-out: GI
HT-29 [5] = experiment: Cytotoxicity against human HT-29 cells assessed as growth inhibition at 10 nM after 3 days by XTT assay; format: functional, cell-based
Caenorhabditis elegans [6] = experiment: Antihelmintic activity against Caenorhabditis elegans Bristol N2 assessed as mortality at 100 ug/ml after 30 mins by microscopic analysis (reference value: 3 +/- 3%); format: functional
Caenorhabditis elegans [7] = experiment: Antihelmintic activity against Caenorhabditis elegans Bristol N2 assessed as mortality at 12.5 ug/ml after 30 mins by microscopic analysis; format: functional, organism-based
HT-29 [8] = experiment: Cytotoxicity against human HT-29 cells assessed as growth inhibition at 125 uM after 3 days by XTT assay relative to control; format: functional; settings: HT-29, 72 h, read-out: GI
PC-3 [9] = experiment: Cytotoxicity against human PC3 cells assessed as growth inhibition at 125 uM after 3 days by XTT assay relative to control; format: functional; settings: PC-3, 72 h, read-out: GI
Caenorhabditis elegans [10] = experiment: Antihelmintic activity against Caenorhabditis elegans Bristol N2 assessed as mortality at 10 ug/ml after 30 mins by microscopic analysis (reference value: 3 +/- 3%); format: functional, organism-based

Row | Molecule | CC50 at 96 h [1] [µM] | EC50 [2] [µM] | MIC (Escherichia coli) [µg/mL] | MIC (Staphylococcus aureus) [µg/mL] | MIC (Enterococcus faecalis) [µg/mL] | inhibition of growth at 10 µM (PC-3 [3]) [%] | inhibition of growth at 0.01 µM (PC-3 [4]) [%] | growth inhibition (GI) (HT-29 [5]) | Activity (Caenorhabditis elegans [6]) [%] | Activity (Caenorhabditis elegans [7]) | inhibition of growth at 125 µM (HT-29 [8]) [%] | inhibition of growth at 125 µM (PC-3 [9]) [%] | Activity (Caenorhabditis elegans [10]) [%]
1 | CC(C)=CCC/C(C)=C/Cc1c(O)cc(O)c(C(=O)c2ccccc2)c1O | 69 | > 69 | > 1 | > 1 | > 1 | < 20 | < 20 | inactive | 0.7 | inactive | – | – | –
2 | CCC(C)C(=O)c1c(O)cc2c3c1OC(C)(C)C1CCC(C)(CC31)O2 (configuration not stated) [EMPETRIFRANZINAN C] | 45 | > 45 | > 1 | > 1 | > 1 | 20 | < 20 | inactive | – | – | – | – | –
3 | CC(C)C(=O)c1c(O)cc2c3c1OC(C)(C)C1CCC(C)(CC31)O2 (configuration not stated) | 18.7 | – | – | – | – | – | – | – | – | – | – | – | –
4 | CC(C)=CCC/C(C)=C/Cc1c(O)cc(O)c(C(=O)C(C)C)c1O | > 100 | > 100 | > 1 | > 1 | > 1 | < 20 | < 20 | inactive | 0.7 | inactive | – | – | –
5 | CC(C)=CCCC1(C)Oc2c(c(O)cc(O)c2C(=O)C(C)C)CC1O (configuration not stated) | 84 | > 84 | > 1 | > 1 | > 1 | < 20 | < 20 | inactive | – | – | – | – | –
6 | CCC(C)C(=O)c1c(O)cc2c3c1OC1(C)CCC(C3C1)C(C)(C)O2 (configuration not stated) | > 100 | > 100 | > 1 | > 1 | > 1 | < 20 | < 20 | inactive | – | – | – | – | –
7 | C[C@@H]1CC[C@@]2(OC1)O[C@H]1[C@@H](O)[C@H]3[C@@H]4CC[C@H]5C[C@@H](O[C@@H]6O[C@H](CO)[C@H](O[C@@H]7O[C@H](CO)C(O)[C@H](O[C@@H]8OC[C@@H](O)[C@H](O)[C@H]8O)[C@H]7O[C@@H]7O[C@H](CO)[C@H](O)[C@H](O[C@@H]8O[C@H](CO)[C@@H](O)[C@H](O)[C@H]8O)[C@H]7O)[C@H](O)[C@H]6O)[C@H](O)C[C@]5(C)[C@H]4CC[C@]3(C)[C@H]1[C@@H]2C (some centres not stated) [DIGITONIN] | – | – | – | – | – | – | – | – | – | – | 100 | 100 | –
8 | CCC(C)C(=O)c1c(O)cc(O)c(C/C=C(\C)CCC=C(C)C)c1O (configuration not stated) | 26.7 | > 26.7 | > 1 | > 1 | > 1 | 20 | < 20 | inactive | 37 | inactive | – | – | –
9 | CCC(C)C(=O)c1c(O)cc(O)c2c1O[C@](C)(CCC=C(C)C)[C@@H](O)C2 (some centres not stated) [EMPETRIKARINOL B] | 45 | > 45 | > 1 | > 1 | > 1 | < 20 | < 20 | inactive | 0.7 | inactive | – | – | –
10 | IVERMECTIN | – | – | – | – | – | – | – | – | – | – | – | – | 99
11 | CC(C)C(=O)c1c(O)cc(O)c2c1O[C@]1(C)CC[C@@H](O)C(C)(C)[C@H]1C2 (relative stereo) | 41 | > 41 | > 1 | > 1 | > 1 | < 20 | < 20 | inactive | 0.7 | inactive | – | – | –
12 | c1ccc2[nH]c(-c3cscn3)nc2c1 [THIABENDAZOLE] | – | – | – | – | – | – | – | – | 19 | – | – | – | –
13 | CC(C)C(=O)c1c(O)cc2c3c1OC1(C)CCC(C3C1)C(C)(C)O2 (configuration not stated) | > 100 | > 100 | > 1 | > 1 | > 1 | 20 | < 20 | inactive | – | – | – | – | –
